Values joined by “and” are separate entries in the source; they are usually repeats but may differ in a detail not shown here. Equal values may be shown once.
Tests used:
[1] = Serum selenium content in selenium-deficient pigs (Table 1); format: in vivo; settings: 0.06 mg Se/kg i.m.
Protocol: (§1) The new type of preparation containing sodium selenite and ferric dextran was administered intramuscularly to three pigs, weight 15 . . . 25 kg, suffering from selenium deficiency. Another three pigs suffering from selenium deficiency were given the same dose of sodium selenite. Serum selenium content and glutathione peroxidase enzyme activity were determined as a measure of the bioactivity of selenium in the organism. […] All the pigs were on the same diet throughout the test period.
(§2) Animals 1, 2 and 3 received 0.06 mg Se per kg body weight intramuscularly
(§3) Animals 4, 5 and 6 received 0.06 mg Se per kg body weight intramuscularly
(§4) as sodium selenite combined with ferric dextran, 200 mg Fe per dose.

[2] = in words; background statement; cited from earlier work
glutathione peroxidase [3] = test: Serum glutathione peroxidase (gSH-Px) activity in selenium-deficient pigs (Table 1); format: in vivo
Protocol: as §1, §2, §3, §4

glutathione peroxidase [4] = test: Serum glutathione peroxidase activity in newborn piglets (Table 2); format: in vivo
Protocol: (§5) Six newborn piglets weighing about 1 kg were given an intramuscular dose of 2 ml of the new iron-selenium preparation, each ml containing 100 mg Fe^+3 as ferric dextran and 0.15 mg Se^+4 as sodium selenite. […] This was in spite of the fact that the animals were fed on milk from a sow kept on a low-selenium diet during this period. Five similar piglets, given the same diet, formed the control group. The control animals were given 200 mg Fe^+3 ferric dextran intramuscularly at the same time as injection of the test group. Four weeks later, mean selenium levels of 55.4 ng/ml and a mean glutathione perioxidase activity of 710.8 IU/l were found in their serum. The differences between the mean values of the test group and the control group were statistically significant, the glutathione peroxidase difference at the 99% confidence interval and the Se difference at the 95% interval (Wilcoxson-Mann-Whitney rank sum test).
(§6) 0.3 mg/Se/kg together with 200 mg Fe^+3

[5] = Serum selenium maintenance / selenium sufficiency in piglets injected at three days; format: in vivo; settings: in words; 200 mg Fe^+3 per animal; 3 weeks
Protocol: (§7) In another study, two sows were kept on a low-selenium diet during the last four weeks of pregnancy and during lactation. The 25 piglets born alive were divided at the age of three days into two groups (12+13), both groups containing piglets from both sows. Blood samples were taken from all piglets for determination of selenium and glutathione peroxidase values and for blood cell counts. The test group (13 piglets) were given a subcutaneous injection of 200 mg (2 ml) Fe^+3 as ferric dextran, to which sodium selenite had been added to give a Se^+4 content of 0.15 mg/ml. The control group (12) received 200 mg Fe^+3 as ferric dextran without Se^+4. One piglet in the control group later died. After eight days, blood samples were taken from all piglets. […] The difference was statistically significant at the 95% confidence interval using the non-parametric Wilcoxson-Mann-Whitney rank sum test. […] This is an important finding that will play a major role in both human and veterinary medicine. The use of selenium in combination with iron is likely to increase considerably. […] Selenium is probably stored as an iron-selenium complex, which explains the unexpected sufficiency of a single dose given at an early stage up to a weight of about 8 . . . 10 kg.

[6] = Growth (weight increase) of piglets injected at three days; format: in vivo; settings: in words; 200 mg Fe^+3 per animal; 3 weeks
Protocol: as §7

erythrocyte count = test: Increase in erythrocyte count in piglets, electronic counter; format: in vivo; settings: eight days after injection of 200 mg Fe^+3 as ferric dextran, with or without Se^+4 0.15 mg/ml (2 ml, s.c. in test group); difference significant at 95% confidence interval
Protocol: as §7

[7] = Serum selenium level in newborn piglets (Table 2); format: in vivo
Protocol: as §5, §6

[8] = in words, four weeks after treatment
[9] = mean of five control piglets, serum, four weeks later, 200 mg Fe^+3 ferric dextran i.m.

Compound | serum selenium level over 15 days ([1]; in words) | Mean Se, 0-sample ([1]; mean of 3 pigs, serum, 0-sample (before dosing)) [ng/mL] | Mean Se at day 8 ([1]; mean of 3 pigs, serum, day 8, 11520 min) [ng/mL] | Mean Se at day 15 ([1]; mean of 3 pigs, serum, day 15, 21600 min) [ng/mL] | elimination of selenium from the organism [2] | half-life of selenium in the organism [2] | gSH-Px, 0-sample (glutathione peroxidase [3]; individual pigs, 0-sample (before dosing), 0.06 mg Se/kg i.m., with ferric dextran 200 mg Fe per dose for animals 4-6) | gSH-Px at day 8 (glutathione peroxidase [3]; individual pigs, day 8, 0.06 mg Se/kg i.m., with ferric dextran 200 mg Fe per dose for animals 4-6) | gSH-Px at day 15 (glutathione peroxidase [3]; individual pigs, day 15, 0.06 mg Se/kg i.m., with ferric dextran 200 mg Fe per dose for animals 4-6) | Mean gSH-Px, 0-sample (glutathione peroxidase [3]; mean of 3 pigs, 0-sample (before dosing), 0.06 mg Se/kg i.m.) [IU/l] | Mean gSH-Px at day 8 (glutathione peroxidase [3]; mean of 3 pigs, day 8, 0.06 mg Se/kg i.m.) [IU/l] | Mean gSH-Px at day 15 (glutathione peroxidase [3]; mean of 3 pigs, day 15, 0.06 mg Se/kg i.m.) [IU/l] | serum level of glutathione peroxidase four weeks later (glutathione peroxidase [4]; [8]) | mean glutathione peroxidase activity, control group (glutathione peroxidase [4]; [9]) [IU/l] | selenium status of control animals [5] | weight increase of control animals [6] | mean increase in the erythrocyte count (erythrocyte count) | serum level of selenium four weeks later [7, 8] | mean selenium level, control group [7, 9] [ng/mL]
O=[Se]([O-])[O-].[Na+].[Na+] [sodium selenite] | remained elevated for only 8 days | 23 | 49 | 35 | rapidly eliminated | short | 373 IU/l and 298 IU/l and 325 IU/l | 1065 IU/l and 796 IU/l and 926 IU/l | 632 IU/l and 437 IU/l and 484 IU/l | 332 | 926 | 518 | – | – | – | – | – | – | –
ferric dextran | – | – | – | – | – | – | – | – | – | – | – | – | indicate a deficiency state | 710.8 | severe selenium deficiency | retardation in weight increase | 1.41±0.30 10^12 /l | indicate a deficiency state | 55.4

— patent publication US4476114A, “Iron-selenium preparation” (Orion-yhtyma Oy, priority 1982, dated 1984)
